Data on one compound can be found in ChEMBL document CHEMBL3102853, “Carbonic anhydrase inhibitors. Synthesis, and molecular structure of novel series N-substituted N'-(2-arylmethylthio-4-chloro-5-methylbenzenesulfonyl)guanidines and their inhibition of human cytosolic isozymes I and II and the transmembrane tumor-associated isozymes IX and XII” (Eur J Med Chem, 2014).

Structures are written as SMILES. The source made the active and inactive calls. The rule behind the calls is not given here.

Holding throughout (type): functional
In one assay the test system is UACC-62. Nature of the assay: Cytotoxicity against human UACC62 cells at 10 uM. As to conditions: read-out: GI.
In another assay the test system is NCI-H460. Nature of the assay: Cytotoxicity against human NCI-H460 cells at 10 uM.
The subject of the next assay is SNB-75. Nature of the assay: Cytotoxicity against human SNB75 cells at 10 uM. As to conditions: read-out: GI.
Another assay concerns SK-MEL-2. Briefly: Cytotoxicity against human SK-MEL-2 cells at 10 uM. As to conditions: read-out: GI.
Another assay relates to A549. Briefly: Cytotoxicity against human A549 cells at 10 uM. The conditions noted are these: read-out: GI.
Another assay relates to MDA-MB-468. Briefly: Cytotoxicity against human MDA-MB-468 cells at 10 uM. As to conditions: read-out: GI.
A short description of assay [1]: Cytotoxicity against human Hs 578T cells at 10 uM. As to conditions: read-out: GI.
In a further assay the test system is MOLT-4. Nature of the assay: Cytotoxicity against human MOLT4 cells at 10 uM. The conditions noted are these: read-out: GI.
A short description of assay [2]: Cytotoxicity against human NCI-ADR-RES cells at 10 uM. As to conditions: read-out: GI.
Another assay concerns T47D. Briefly: Cytotoxicity against human T47D cells at 10 uM. The conditions noted are these: read-out: GI.
Another assay relates to SW-620. Nature of the assay: Cytotoxicity against human SW620 cells at 10 uM.
In another assay the test system is HT-29. Briefly: Cytotoxicity against human HT-29 cells at 10 uM.
The next assay relates to OVCAR-3. Nature of the assay: Cytotoxicity against human OVCAR3 cells at 10 uM. As to conditions: read-out: GI.
Another assay deals with MCF7. Briefly: Cytotoxicity against human MCF7 cells at 10 uM. As to conditions: read-out: GI.
A further assay relates to SR. Briefly: Cytotoxicity against human SR cells at 10 uM. As to conditions: read-out: GI.
The subject of a further assay is HOP-92. Nature of the assay: Cytotoxicity against human HOP92 cells at 10 uM. As to conditions: read-out: GI.
The test system of another assay is DU-145. Briefly: Cytotoxicity against human DU145 cells at 10 uM.
A further assay has as its system PC-3. Nature of the assay: Cytotoxicity against human PC3 cells at 10 uM. The conditions noted are these: read-out: GI.
The next assay deals with LOX IMVI. Nature of the assay: Cytotoxicity against human LOXIMVI cells at 10 uM. The conditions noted are these: read-out: GI.
The subject of a further assay is A498. Briefly: Cytotoxicity against human A498 cells at 10 uM.
For the next assay, the system named is SF-268. Nature of the assay: Cytotoxicity against human SF268 cells at 10 uM. As to conditions: read-out: GI.
A further assay concerns RPMI-8226. Briefly: Cytotoxicity against human RPMI8226 cells at 10 uM. As to conditions: read-out: GI.
Another assay concerns KM12. Nature of the assay: Cytotoxicity against human KM12 cells at 10 uM. The conditions noted are these: read-out: GI.

With `Cc1cc(S(=O)(=O)NC(=N)Nc2ccc(S(N)(=O)=O)cc2)c(SCc2cc3c(cc2Cl)OCO3)cc1Cl`, the inhibition of growth at 10 µM with UACC-62 stood at 17%; with SNB-75, 22%; with SK-MEL-2, 9%; with A549, 4%; in the assay on MDA-MB-468 it was 41%; in assay [1] it was 2%. The inhibition of growth at 10 µM was 20% with MOLT-4; 1% in assay [2]; 23% with T47D; 12% with OVCAR-3; 4% with MCF7; 25% with SR. Moreover, the inhibition of growth at 10 µM stood at 29% in the assay on HOP-92; 25% in the assay with PC-3; 8% in the assay on LOX IMVI; 5% in the assay on SF-268; 10% in the assay on RPMI-8226; 8% with KM12. The “growth inhibition (GI)” value in the assay with NCI-H460, in the assay with SW-620, with HT-29, in the assay with DU-145 and in the assay on A498 was “inactive” in each case.
